Several values for one entry are separate records, joined by “and”; a condition that tells them apart may be missing. Identical values can stand only once. Toxic doses and inconclusive results are not listed.

For this assay, the system named is CD2F1 mice, L1210 leukemia sc, survival T/C. The assay can be described thus: NCI In Vivo Anticancer Drug Screen. Data for tumor model L1210 Leukemia (subcutaneous) in CD2F1 (CDF1) mice. The conditions noted are these: endpoint: median survival time, higher = longer survival. In short, it runs like this: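 Antitumor activity is scored in tumor-bearing mice by comparing survival or tumor size of treated animals against vehicle-treated controls, reported as T/C.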

Setting [1] is: dose: 16.0 mg/kg/injection, schedule: Q01DX009 (sc), vehicle: saline.

For `O=P1(N(CCCl)CCCl)NCCCO1` (configuration not stated), the T/C (dose: 6.25 mg/kg/injection, schedule: Q01DX009 (ip), vehicle: saline) is 103 % of control; the T/C (dose: 6.25 mg/kg/injection, schedule: Q01DX009 (sc), vehicle: saline) is 107 % of control; the T/C (dose: 12.5 mg/kg/injection, schedule: Q01DX009 (ip), vehicle: saline) was 106 % of control and 107 % of control; the T/C (dose: 12.5 mg/kg/injection, schedule: Q01DX009 (sc), vehicle: saline) was 110 % of control; the T/C (dose: 23.0 mg/kg/injection, schedule: Q01DX Z (sc), vehicle: saline) is 210 % of control; the T/C (dose: 25.0 mg/kg/injection, schedule: Q01DX009 (ip), vehicle: saline) is 151 % of control. For the same molecule, the T/C is 221 % of control (dose: 39.0 mg/kg/injection, schedule: Q01DX Z (sc), vehicle: saline); 118 % of control (dose: 39.0 mg/kg/injection, schedule: Q08DX003 (ip), vehicle: none); 116 % of control (dose: 39.0 mg/kg/injection, schedule: Q08DX003 (sc), vehicle: saline); 165 % of control and 173 % of control and 177 % of control (dose: 50.0 mg/kg/injection, schedule: Q01DX009 (ip), vehicle: saline); 191 % of control (dose: 50.0 mg/kg/injection, schedule: Q01DX009 (sc), vehicle: saline); 236 % of control (dose: 65.0 mg/kg/injection, schedule: Q01DX Z (sc), vehicle: saline). Moreover, the T/C was 123 % of control (dose: 65.0 mg/kg/injection, schedule: Q07DX003 (ip), vehicle: saline); 188 % of control (dose: 65.0 mg/kg/injection, schedule: Q08DX003 (ip), vehicle: none); 172 % of control (dose: 65.0 mg/kg/injection, schedule: Q08DX003 (sc), vehicle: saline); 215 % of control (dose: 65.0 mg/kg/injection, schedule: Q## X Z (sc), vehicle: saline); 222 % of control and 247 % of control and 89 % of control (dose: 100.0 mg/kg/injection, schedule: Q01DX009 (ip), vehicle: saline); 259 % of control (dose: 100.0 mg/kg/injection, schedule: Q01DX009 (sc), vehicle: saline). The T/C (dose: 108.0 mg/kg/injection, schedule: Q01DX001 (sc), vehicle: saline) was 164 % of control and 166 % of control and 168 % of control; the T/C (dose: 108.0 mg/kg/injection, schedule: Q01DX Z (sc), vehicle: saline) was 189 % of control; the T/C (dose: 108.0 mg/kg/injection, schedule: Q07DX003 (ip), vehicle: saline) was 183 % of control; the T/C (dose: 108.0 mg/kg/injection, schedule: Q07DX003 (sc), vehicle: saline) is 211 % of control and 217 % of control; the T/C (dose: 108.0 mg/kg/injection, schedule: Q07DX Z (sc), vehicle: saline) is 226 % of control; the T/C (dose: 108.0 mg/kg/injection, schedule: Q08DX003 (ip), vehicle: none) was 241 % of control. For the same molecule, the T/C is 227 % of control (dose: 108.0 mg/kg/injection, schedule: Q08DX003 (sc), vehicle: saline); 231 % of control (dose: 108.0 mg/kg/injection, schedule: Q## X Z (sc), vehicle: saline); 197 % of control and 200 % of control (2×) (dose: 180.0 mg/kg/injection, schedule: Q01DX001 (sc), vehicle: saline); 152 % of control (dose: 180.0 mg/kg/injection, schedule: Q01DX Z (sc), vehicle: saline); 274 % of control (dose: 180.0 mg/kg/injection, schedule: Q07DX003 (ip), vehicle: saline); 355 % of control and 373 % of control (dose: 180.0 mg/kg/injection, schedule: Q07DX003 (sc), vehicle: saline). For the same molecule, the T/C (dose: 180.0 mg/kg/injection, schedule: Q07DX Z (sc), vehicle: saline) is 284 % of control; the T/C (dose: 180.0 mg/kg/injection, schedule: Q08DX003 (ip), vehicle: none) is 288 % of control; the T/C (dose: 180.0 mg/kg/injection, schedule: Q08DX003 (sc), vehicle: saline) is 283 % of control; the T/C (dose: 180.0 mg/kg/injection, schedule: Q## X Z (sc), vehicle: saline) was 263 % of control; the T/C (dose: 300.0 mg/kg/injection, schedule: Q01DX001 (sc), vehicle: saline) is 242 % of control and 244 % of control and 252 % of control; the T/C (dose: 300.0 mg/kg/injection, schedule: Q07DX003 (ip), vehicle: saline) was 274 % of control. The T/C was 283 % of control and 296 % of control (dose: 300.0 mg/kg/injection, schedule: Q07DX003 (sc), vehicle: saline); 231 % of control (dose: 300.0 mg/kg/injection, schedule: Q07DX Z (sc), vehicle: saline); 222 % of control (dose: 300.0 mg/kg/injection, schedule: Q08DX003 (ip), vehicle: none); 205 % of control (dose: 300.0 mg/kg/injection, schedule: Q08DX003 (sc), vehicle: saline); 120 % of control and 221 % of control (dose: 500.0 mg/kg/injection, schedule: Q01DX001 (sc), vehicle: saline); 152 % of control (dose: 500.0 mg/kg/injection, schedule: Q## X Z (sc), vehicle: saline). Moreover, the T/C is, setting by setting: (dose: 833.0 mg/kg/injection, schedule: Q01DX001 (sc), vehicle: saline) 210 % of control; (dose: 833.0 mg/kg/injection, schedule: Q07DX Z (sc), vehicle: saline) 157 % of control.
For `N=C(N)Cc1ccc(NC(=O)c2ccc(C(=O)Nc3ccc(CC(=N)N)cc3)cc2)cc1`, the T/C is, setting by setting: (dose: 8.4 mg/kg/injection, schedule: Q01DX Z (sc), vehicle: water) 110 % of control; (dose: 14.0 mg/kg/injection, schedule: Q01DX Z (sc), vehicle: water) 105 % of control; (dose: 23.0 mg/kg/injection, schedule: Q01DX Z (sc), vehicle: water) 115 % of control; (dose: 39.0 mg/kg/injection, schedule: Q01DX Z (sc), vehicle: water) 110 % of control; (dose: 65.0 mg/kg/injection, schedule: Q01DX Z (sc), vehicle: water) 115 % of control.
Regarding `Cc1ccc(NCCN(C)C)c2c(=O)c3cc(O)ccc3sc12`, the T/C by setting is: (dose: 12.5 mg/kg/injection, schedule: Q01DX009 (ip), vehicle: Klucel (hydroxypropylcellulose) (HPC)) 110 % of control and 112 % of control; (dose: 25.0 mg/kg/injection, schedule: Q01DX009 (ip), vehicle: Klucel (hydroxypropylcellulose) (HPC)) 112 % of control and 117 % of control; (dose: 50.0 mg/kg/injection, schedule: Q01DX009 (ip), vehicle: Klucel (hydroxypropylcellulose) (HPC)) 165 % of control.
Regarding `Cc1c(N)nc([C@H](CC(N)=O)NC[C@H](N)C(N)=O)nc1C(=O)N[C@H](C(=O)N[C@H](C)[C@@H](O)[C@H](C)C(=O)N[C@H](C(=O)NCCc1nc(-c2nc(C(=O)NCCC[S+](C)C)cs2)cs1)[C@@H](C)O)C(OC1OC(CO)C(O)C(O)C1OC1OC(CO)C(O)C(OC(N)=O)C1O)c1cnc[nH]1` (some centres not stated), the T/C by setting is: (dose: 1.0 mg/kg/injection, schedule: Q01DX009 (ip), vehicle: saline) 100 % of control; (dose: 2.0 mg/kg/injection, schedule: Q01DX009 (ip), vehicle: saline) 100 % of control and 101 % of control and 107 % of control; (dose: 2.0 mg/kg/injection, schedule: Q01DX009 (sc), vehicle: saline) 110 % of control; (dose: 4.0 mg/kg/injection, schedule: Q01DX009 (ip), vehicle: saline) 100 % of control and 105 % of control and 109 % of control; (dose: 4.0 mg/kg/injection, schedule: Q01DX009 (sc), vehicle: saline) 102 % of control; (dose: 8.0 mg/kg/injection, schedule: Q01DX009 (ip), vehicle: saline) 100 % of control and 107 % of control and 109 % of control. Besides, the T/C was 102 % of control (dose: 8.0 mg/kg/injection, schedule: Q01DX009 (sc), vehicle: saline); 104 % of control and 107 % of control and 112 % of control (dose: 16.0 mg/kg/injection, schedule: Q01DX009 (ip), vehicle: saline); 106 % of control under setting [1]; 102 % of control and 109 % of control and 112 % of control (dose: 32.0 mg/kg/injection, schedule: Q01DX009 (ip), vehicle: saline); 100 % of control (dose: 32.0 mg/kg/injection, schedule: Q01DX009 (sc), vehicle: saline); 112 % of control (dose: 64.0 mg/kg/injection, schedule: Q01DX009 (ip), vehicle: saline).
With `N[C@H](C(=O)O)[C@H]1ON=C(Cl)[C@@H]1O`, the T/C was 114 % of control under setting [1]; 152 % of control (dose: 64.0 mg/kg/injection, schedule: Q01DX009 (sc), vehicle: saline); 120 % of control (dose: 1024.0 mg/kg/injection, schedule: Q01DX009 (sc), vehicle: saline).
Regarding `COc1cccc2c1C(=O)c1c(O)c3c(c(O)c1C2=O)C[C@@](O)(C(=O)CO)C[C@@H]3OC1CC(OC(C)=O)C(OC(C)=O)C(C)O1` (some centres not stated), the T/C is, setting by setting: (dose: 1.56 mg/kg/injection, schedule: Q01DX009 (ip), vehicle: distilled water + Tween-80) 106 % of control; (dose: 1.57 mg/kg/injection, schedule: Q01DX009 (ip), vehicle: distilled water + Tween-80) 105 % of control; (dose: 3.13 mg/kg/injection, schedule: Q01DX009 (ip), vehicle: distilled water + Tween-80) 105 % of control and 114 % of control; (dose: 12.5 mg/kg/injection, schedule: Q01DX009 (ip), vehicle: distilled water + Tween-80) 182 % of control and 195 % of control.
Turning to `CCn1cnc2c(=S)nc[nH]c21`, the T/C (dose: 833.0 mg/kg/injection, schedule: Q01DX Z (sc), vehicle: methylcellulose (MC)) is 120 % of control.

The values above are taken from PubChem BioAssay AID258 (DTP/NCI, 2004).
